This passage reports GI50 and TGI results from PubChem BioAssay (NCI).

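Cells were grown in 96-well plates and exposed to each compound for 48 hours at five concentrations; endpoints were interpolated linearly between bracketing concentrations, or set to the highest concentration if not reached. Here, GI50 denotes the concentration required for 50% inhibition of growth. TGI is the concentration that stops growth completely.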 Bounds are passed on as bounds.

Among the test systems are A498 renal; CAKI-1 renal; HOP-92 NSCLC; IGROV1 ovarian; K-562 leukemia; OVCAR-5 ovarian; RPMI-8226 leukemia; SF-295 CNS; SF-539 CNS; SR leukemia.
Holding throughout (assay): growth of human tumour cells (NCI), 48 h

`OCCNc1nc2ccccc2c2[nH]c3ccccc3c12`: the GI50 in the assay with A498 renal was 0.36 µM; in the assay with CAKI-1 renal it was 0.529 µM; in the assay with HOP-92 NSCLC, 0.943 µM; in the assay with IGROV1 ovarian it was 0.397 µM; in the assay on K-562 leukemia, 0.44 µM; in the assay with OVCAR-5 ovarian, 1.13 µM. The GI50 in the assay on RPMI-8226 leukemia is 0.388 µM; in the assay on SF-295 CNS, 0.314 µM; in the assay on SF-539 CNS it was 0.615 µM; with SR leukemia, 0.206 µM. Further, the TGI in the assay on A498 renal is 1.72 µM; with CAKI-1 renal, 8.9 µM; with HOP-92 NSCLC it was 13.2 µM; in the assay with IGROV1 ovarian it was 6.1 µM; with K-562 leukemia, > 26.3 µM; with OVCAR-5 ovarian, 7.55 µM. For the same molecule, the TGI in the assay with RPMI-8226 leukemia is 3.91 µM; in the assay on SF-295 CNS, 2.42 µM; in the assay with SF-539 CNS, 3.68 µM; in the assay with SR leukemia it was 5.95 µM.

For the molecule `O=C(Nc1nc(=S)[nH][nH]1)C(=O)C(c1cnc2ccc([N+](=O)[O-])cc2n1)[N+](=O)[O-]` (stereo not given), the TGI in the assay with A498 renal, with CAKI-1 renal, with HOP-92 NSCLC, with IGROV1 ovarian, in the assay with K-562 leukemia and in the assay with OVCAR-5 ovarian was > 100 µM throughout. The TGI with RPMI-8226 leukemia, with SF-295 CNS, in the assay with SF-539 CNS and in the assay with SR leukemia was > 100 µM each time.

For the molecule `C#COc1cccc(Nc2ncnc3cc(NC(=O)[C@@H](C)Cl)ccc23)c1`, the GI50 in the assay on A498 renal was 7.16 µM; in the assay with CAKI-1 renal, 10.2 µM; in the assay on HOP-92 NSCLC, > 62.5 µM; with IGROV1 ovarian, 5.29 µM; in the assay on K-562 leukemia, 2.56 µM; in the assay on OVCAR-5 ovarian it was 18 µM. The GI50 in the assay on RPMI-8226 leukemia was 13.8 µM; with SF-295 CNS, 8.22 µM; with SF-539 CNS, 8.61 µM; with SR leukemia, 3.08 µM. The TGI with A498 renal was 49.9 µM; in the assay with CAKI-1 renal, > 62.5 µM; with HOP-92 NSCLC, > 62.5 µM; in the assay with IGROV1 ovarian, > 62.5 µM; with K-562 leukemia, > 62.5 µM; with OVCAR-5 ovarian it was > 62.5 µM. Moreover, the TGI was > 62.5 µM with RPMI-8226 leukemia, 61.2 µM in the assay on SF-295 CNS, 46 µM in the assay with SF-539 CNS and > 62.5 µM in the assay with SR leukemia.

Regarding `Cn1cc(-c2ccc3ncc(-c4ccc(CC(=O)Nc5cc(C(C)(C)C)nn5C)cc4)cc3c2)cn1`, the GI50 is 0.422 µM in the assay on A498 renal; 0.541 µM in the assay on CAKI-1 renal; 2.45 µM with HOP-92 NSCLC; 0.568 µM with IGROV1 ovarian; 1.13 µM with K-562 leukemia; 7.83 µM in the assay on OVCAR-5 ovarian. The GI50 was 0.64 µM in the assay on RPMI-8226 leukemia, 1.58 µM with SF-295 CNS, 2.22 µM in the assay on SF-539 CNS and 0.967 µM in the assay on SR leukemia. Besides, the TGI in the assay with A498 renal was 1.66 µM; in the assay on CAKI-1 renal it was 7.15 µM; in the assay on HOP-92 NSCLC, > 20 µM; in the assay with IGROV1 ovarian, > 20 µM; in the assay on K-562 leukemia it was > 20 µM; in the assay on OVCAR-5 ovarian, > 20 µM. For the same molecule, the TGI in the assay on RPMI-8226 leukemia is 4.07 µM; with SF-295 CNS, > 20 µM; with SF-539 CNS, > 20 µM; in the assay on SR leukemia, > 20 µM.

Regarding `CC(=O)Nc1cccc(C#Cc2cncnc2Nc2ccc(OCc3cccc(F)c3)c(Cl)c2)c1`, the GI50 with A498 renal was 1.1 µM; in the assay with CAKI-1 renal, 3.3 µM; with HOP-92 NSCLC it was 4.05 µM; with IGROV1 ovarian it was 4.49 µM; with K-562 leukemia, 8.96 µM; in the assay with OVCAR-5 ovarian, 12.7 µM. In addition, the GI50 with RPMI-8226 leukemia was 12.7 µM; with SF-295 CNS, 6.47 µM; in the assay on SF-539 CNS it was 14.9 µM; with SR leukemia, > 18.7 µM. Besides, the TGI in the assay on A498 renal was > 16.6 µM; in the assay on CAKI-1 renal, > 25 µM; in the assay with HOP-92 NSCLC, > 22.5 µM; in the assay with IGROV1 ovarian, > 25 µM; with K-562 leukemia, > 25 µM; in the assay with OVCAR-5 ovarian it was > 25 µM. In addition, the TGI in the assay on RPMI-8226 leukemia, in the assay on SF-295 CNS, in the assay on SF-539 CNS and in the assay with SR leukemia was > 25 µM in each case.

Regarding `O=C(Nc1ccccc1C(=O)NC(=O)c1ccccc1NC(=O)c1ccccc1)c1ccccc1`, the TGI with A498 renal was found to be 33.3 µM; with CAKI-1 renal, 29.1 µM; in the assay with HOP-92 NSCLC, 6.5 µM; in the assay on IGROV1 ovarian it was 5.93 µM; in the assay with K-562 leukemia, 18.3 µM; in the assay with OVCAR-5 ovarian it was 13.5 µM. Further, the TGI was 8.23 µM in the assay with RPMI-8226 leukemia, 26.6 µM with SF-295 CNS, 18.9 µM in the assay on SF-539 CNS and 8.52 µM with SR leukemia.

Regarding `Nc1nc(-c2ccccc2)c(CC(=O)O)s1`, the TGI in the assay with A498 renal, with CAKI-1 renal, in the assay on HOP-92 NSCLC, in the assay with IGROV1 ovarian, with K-562 leukemia and in the assay on OVCAR-5 ovarian was > 100 µM in each case. The TGI with RPMI-8226 leukemia, in the assay with SF-295 CNS, with SF-539 CNS and in the assay with SR leukemia was > 100 µM each time.
